Results reported in US11185077B2, “Attractants for rodents” (priority 2016, dated 2021).

How the values were obtained:
house mice, Mus musculus = test: Laboratory T-tube bioassay: behavioral responses of mice (first choice, time spent); type: in vivo; settings: male mice
From the text: A laboratory experimental apparatus was constructed to test the behavioral responses of mice to the compositions described herein. The experimental design is depicted in FIG. 4 and includes three clear Plexiglas chambers: release chamber (1: 40 cm×20 cm×30 cm for placement of a mouse at the onset of a bioassay), and response chambers (3a and 3b: each 60 cm×30 cm×40 cm) interconnected by a Pyrex glass T-tube (2; stem: 65 cm long, side arms: 45 cm long, all 10 cm in diameter). Each response chamber housed a test stimulus in a Petri dish (4a, 4b; 3 cm diam.). For each replicate, a single mouse was deprived of food, but not water, for 4-6 h before being placed into chamber 1, which was illuminated by dim red light to facilitate observations of the mouse's position. The mouse was allowed to enter the stem of the T-tube (2) on its own accord in response to test stimuli, which were randomly assigned to response chamber 3a or 3b.
Both response chambers were fitted with a Petri dish (4a, 4b) containing a Whatman #1 filter paper disk (25 mm diam.) treated with a randomly assigned treatment stimulus or control stimulus. For each bioassay, a single mouse was tested and the following data were recorded: (1) the treatment or control chamber the mouse entered first with all four paws (“first-choice data”); and (2) the position of the mouse at each of 30 30-sec intervals after its first entry into the T-tube. Position data were then used to calculate the proportion of time a mouse spent in the treatment or control chamber (“time-spent data”).
Following each replicate, the chambers and T-tube were cleaned with a Percept® disinfectant detergent (Virox Technologies Inc. Mississaugua ON L5N 5M4, Canada) and wiped with 70% ethanol.
First-choice data and the time spent in a trap box quadrant were analyzed using a χ^2 test with Yates' correction for continuity (α=0.05) and the Student's t-test (α=0.05), respectively.
In Experiment 5, the laboratory experimental design of FIG. 4 was used to evaluate the responses of female mice to synthetic androstenone. For Experiment 5, the treatment stimulus consisted of filter paper treated with 4 μg of synthetic androstenone (see Experiments 1 and 2), and the control stimulus consisted of filter paper treated with the 50 μl of ether without androstenone.
In Experiment 6, the laboratory experimental design of FIG. 4 was used to evaluate the responses of male mice to blends of synthetic progesterone and estrogen. For Experiment 6, the treatment stimulus consisted of filter paper treated with a 4-μg blend of the synthetic hormones progesterone and estrogen formulated in 50 μl of ether at a ratio of 100:1 and a control stimulus which consisted of filter paper treated with 50 μl of ether.
In Experiments 9 to 11, the laboratory experimental design of FIG. 4 was used to evaluate the responses of male mice to synthetic progesterone and estrogen. For the Experiments, the treatment stimulus consisted of filter paper treated with a blend of the synthetic progesterone (50 ng) and estrogen (25 ng) (hereinafter “synthetic hormone blend”) (Experiment 9), progesterone alone (75 ng) (Experiment 10) or estrogen alone (75 ng) (Experiment 11) formulated in 50 μl ether. The control stimulus consisted of filter paper treated with 50 μl of ether for each of Experiments 9 to 11.
Experiment 12 used the laboratory experimental apparatus of FIG. 4 to test choices of female mice between filter paper treated with 75 ng of synthetic testosterone (the treatment stimulus) formulated in 50 μl of ether and control filter paper treated with 50 μl of ether. Experiment 13 was identical to Experiment 12 except that the treatment stimulus consisted of filter paper treated with 75 ng of synthetic androstenone.

[1] = tested on: wild house mice, Mus musculus; test: Field experiments with paired trap boxes: trap captures of wild mice; type: in vivo
[2] = Experiment 11, estrogen alone (75 ng)
[3] = Experiment 10, progesterone alone (75 ng)
[4] = Experiment 22, 750 ng of progesterone

| SMILES | first entry into baited chamber vs control chamber (house mice, Mus musculus; [2]) | responsiveness of male mice compared with progesterone (house mice, Mus musculus; [2]) | time spent in treatment chamber vs control chamber (house mice, Mus musculus; [2]) | captures of wild mice vs control traps ([1]; Experiment 23, 750 ng of estradiol (estrogen)) | first entry into treated chamber vs control chamber (house mice, Mus musculus; [3]) | responses of male mice compared with the blend (house mice, Mus musculus; [3]) | time spent in treated chamber vs control chamber (house mice, Mus musculus; [3]) | captures of adult male mice vs control traps [1, 4] | captures of juvenile male mice vs control traps [1, 4] |
| --- | --- | --- | --- | --- | --- | --- | --- | --- | --- |
| C[C@]12CC[C@@H]3c4ccc(O)cc4CC[C@H]3[C@@H]1CC[C@@H]2O [estrogen, (8R,9S,13S,14S,17S)-13-methyl-6,7,8,9,11,12,14,15,16,17-decahydrocyclopenta[a]phenanthrene-3,17-diol] | significantly more often | more responsive to estrogen than to progesterone | significantly more time | as ineffective as control traps | – | – | – | – | – |
| CC(=O)[C@H]1CC[C@H]2[C@@H]3CCC4=CC(=O)CC[C@]4(C)[C@H]3CC[C@]12C [progesterone] | – | – | – | – | did not significantly choose to first enter | less pronounced | significantly more time | significantly more | significantly more |
